Experiments:
[1] = target: T1, RNA-dependent DNA polymerase activity of HIV reverse transcriptase (Human immunodeficiency virus type 1 group M subtype B, UniProt P03366); assay: RNA-dependent DNA polymerase activity assay of HIV reverse transcriptase; assay type: biochemical, HIV-1; conditions: 10 μM inhibitor concentration, activity in presence / in absence of analog x 100
T1 construct: made in house
Protocol: In separate representative assays, mappicine analogs were tested for their ability to inhibit the RNA-dependent DNA polymerase activity of HIV reverse transcriptase and for their ability to inhibit the RNase H activity of HIV reverse transcriptase. The assay for RNA-dependent DNA polymerase activity is discussed in Borkow, G. et al., “Inhibition of the Ribonuclease H and DNA Polymerase Activities of HIV-1 Reverse Transcriptase by N-(4-tert-Butylbenzoyl)-2-hydroxy-1-naphthaldehyde Hydrazone,” Biochemistry 1997, 36, 3179-3185, a copy of which is attached hereto and the disclosure of which is incorporated herein by reference. Assays were carried out in the absence and in the presence of mappicine analogs (10 μM final concentration). The results are reported as % residual activity, which is the RNA-dependent DNA polymerase activity of the enzyme in the presence of the mappicine analog divided by the RNA-dependent activity of the enzyme in the absence of the mappicine analog, multiplied by 100.

[2] = target: T2, RNase H activity of HIV reverse transcriptase (Human immunodeficiency virus type 1 group M subtype B, UniProt P03366); assay: Fluorescence (FRET)-based RNase H assay of HIV reverse transcriptase; assay type: biochemical, HIV-1; conditions: 10 μM inhibitor concentration, activity in presence / in absence of analog x 100
T2 construct: 2.5 nM of the p51/p66 RT heterodimer in the assay; made in house
Protocol: Recently, a fluorescence-based assay to perform screens in search of HIV RNase H inhibitors has been developed. The assay, which is carried out in 96-well microplates and is adaptable to robotics, is the first high-throughput screen for RNase H and is described in further detail in the Experimental section. HIV-1 RT and human RNase H were cloned, and thus comparative analysis of inhibitor action could be conducted simultaneously.
The assay for RNase H activity of HIV reverse transcriptase was the fluorescence-based assay described in detail in the Experimental section and discussed in U.S. Provisional Patent Application Serial No. 60/318,359. Assays were carried out in the absence and in the presence of mappicine analogs (10 μM or 20 μM final concentration). The results are reported as % residual activity, which is the RNase H activity of the enzyme in the presence of the mappicine analog divided by the RNase H activity of the enzyme in the absence of the mappicine analog, multiplied by 100. Alternatively, the results are reported as % inhibition, which is calculated as the ratio of the RNase H activity of the enzyme in the presence of the mappicine analog to the enzyme activity in the absence of the mappicine analog, multiplied by 100, and then subtracting this number from 100.
Assay for Ribonuclease H Activity Based on Fluorescence Resonance Energy Transfer (FRET)
Preparation of the Fluorophore-RNA/Quencher-DNA Hybrid Duplex Substrate.
The RNA/DNA hybrid duplex substrate for use in the assay comprises an RNA oligonucleotide of sequence 5′-GAU CUG AGC CUG GGA GCU-3′, modified at the 3′-end with Aminolink-2 and derivatized with fluorescein isothiocyanate, to provide a modified RNA oligonucleotide of the sequence 5′-GAU CUG AGC CUG GGA GCU-fluorescein-3′, annealed to a complementary DNA oligonucleotide of the sequence 5′-AGC TCC CAG GCT CAG ATC-3′ modified at the 5′-end with Aminolink-2 and derivatized with the FRET acceptor DABCYL succinimidyl ester, to provide a modified DNA oligonucleotide of the sequence 5′-DABCYL-AGC TCC CAG GCT CAG ATC-3′.
To prepare the 3′-fluorescein-RNA/5′-DABCYL-DNA hybrid duplex substrate, a known amount of 3′-fluorescein-RNA was dissolved in 20 mM Tris buffer (pH 8.0, 37° C.) to provide a final concentration of 5 μM. Two equivalents of the 5′-DABCYL-DNA oligonucleotide were added, and the mixture was heated to 90° C. for 5 min and cooled slowly to room temperature to allow duplex formation. The positioning of the fluorescein donor at the 3′-end of the RNA oligonucleotide and the DABCYL acceptor at the 5′-end of the DNA oligonucleotide provides a very close proximity of the donor and acceptor that results in a very intense quenching of the fluorescein emission in the intact RNA/DNA hybrid duplex substrate due to the spectral overlap of the fluorescence emission of fluorescein with the absorption spectrum of DABCYL. In addition, DABCYL is non-fluorescent, and thus cannot contribute any light emission. Both of these factors result in a very low background and provide a high signal-to-noise in the assay measurements. The ratio of the donor fluorescence in the absence and in the presence of its quencher is approximately fifteen-fold.
Microplate Assay Protocol for the Measurement of RNase H Activity Using the RNA/IDNA Hybrid Duplex Substrate.
Reaction assay mixtures contained 5 μl of a stock solution of 2.5 μM RNA/DNA hybrid duplex substrate added to 85 μl of assay buffer (50 mM Tris, pH 8.0, 37° C., containing 60 mM KCl and 2.5 mM MgCl2), prepared in the wells of a 96-well fluorescence microtiter plate, and warmed to 37° C. using the temperature control of the SpectraMax Gemini XS microplate spectrofluorometer (Molecular Devices). Reactions were started by the addition of 5 μl of a solution of recombinant HIV-1 reverse transcriptase (usually providing a final concentration of 2.5 nM of the p51/p66 RT heterodimer in the assay), and mixing using the automatic mixing function of the microplate spectrofluorometer. […]

Row | SMILES | Residual activity (%) Polymerase [1] | Residual activity (%) RNase H [2] | Residual activity (%) Polymerase ([1]; 10 µM) | Residual activity (%) RNase H ([2]; 10 µM)
1 | CCCCCCc1c2c(nc3ccc(OC)cc13)-c1cc(C(O)CC)c(C)c(=O)n1C2 (centres unmarked) [5 (8Dα)] | 85% | 66% | – | –
2 | COc1ccc2nc3c(c([Si](C)(C)C)c2c1)Cn1c-3cc(C(O)CCC2CCCCC2)c(C)c1=O (centres unmarked) [5 (5Dδ)] | 57% | 96% | – | –
3 | COc1ccc2nc3c(c([Si](C)(C)C(C)(C)C)c2c1)Cn1c-3cc(C(O)C(C)(C)C)c(C)c1=O (centres unmarked) [5 (4Dβ)] | 47% | 91% | – | –
4 | Cc1c(C(=O)CCC2CCCCC2)cc2n(c1=O)Cc1c-2nc2ccccc2c1[Si](C)(C)C(C)(C)C [5 (4Aδκ)] | 39% | 102% | – | –
5 | Cc1c(C(O)Cc2ccccc2)cc2n(c1=O)Cc1c-2nc2ccccc2c1[Si](C)(C)C (centres unmarked) [5 (5Aε)] | 54% | 93% | – | –
6 | CCC(=O)c1cc2n(c(=O)c1C)Cc1c-2nc2ccc(C)cc2c1[Si](C)(C)C [5 (5Cακ)] | 93% | 109% | – | –
7 | COc1ccc2nc3c(c([Si](C)(C)C)c2c1)Cn1c-3cc(C(=O)C(C)(C)C)c(C)c1=O [5 (5Dβκ)] | 64% | 86% | – | –
8 | CCCCCCc1c2c(nc3ccc(F)cc13)-c1cc(C(=O)C(C)(C)C)c(C)c(=O)n1C2 [5 (8Bβκ)] | 44% | 81% | – | –
9 | CCCCCCc1c2c(nc3ccccc13)-c1cc(C(=O)CC)c(C)c(=O)n1C2 [5 (8Aακ)] | 53% | 77% | – | –
10 | CCCCCCc1c2c(nc3ccc(C)cc13)-c1cc(C(O)CC)c(C)c(=O)n1C2 (centres unmarked) [5 (8Cα)] | 84% | 65% | – | –
11 | CCC(O)c1cc2n(c(=O)c1C)Cc1c-2nc2ccc(F)cc2c1-c1ccccc1 (centres unmarked) [5 (3Bα)] | 54% | 83% | – | –
12 | CCC(=O)c1cc2n(c(=O)c1C)Cc1c-2nc2ccc(C)cc2c1[Si](C)(C)C(C)(C)C [5 (4Cακ)] | 52% | 90% | – | –
13 | CCC(O)c1cc2n(c(=O)c1C)Cc1c-2nc2ccccc2c1[Si](C)(C)C (centres unmarked) [5 (AG 1M)] | – | – | 89% | 73%
14 | CCCCCCc1c2c(nc3ccc(C)cc13)-c1cc(C(O)CCC3CCCCC3)c(C)c(=O)n1C2 (centres unmarked) [5 (8Cδ)] | 73% | 72% | – | –
15 | Cc1c(C(O)C(C)(C)C)cc2n(c1=O)Cc1c-2nc2ccccc2c1-c1ccccc1 (centres unmarked) [5 (3Aβ)] | 54% | 95% | – | –
16 | Cc1c(C(=O)C(C)(C)C)cc2n(c1=O)Cc1c-2nc2ccc(F)cc2c1[Si](C)(C)C [5 (5Bβκ)] | 63% | 100% | – | –
17 | Cc1c(C(=O)CCC2CCCCC2)cc2n(c1=O)Cc1c-2nc2ccc(F)cc2c1[Si](C)(C)C [5 (5Bδκ)] | 46% | 78% | – | –
18 | COc1ccc2nc3c(c([Si](C)(C)C(C)(C)C)c2c1)Cn1c-3cc(C(=O)CCC2CCCCC2)c(C)c1=O [5 (4Dδκ)] | 50% | 83% | – | –
19 | CCCCCCc1c2c(nc3ccccc13)-c1cc(C(=O)C(C)(C)C)c(C)c(=O)n1C2 [5 (8Aβκ)] | 76% | 96% | – | –
20 | Cc1c(C(=O)C(C)(C)C)cc2n(c1=O)Cc1c-2nc2ccc(F)cc2c1[Si](C)(C)C(C)(C)C [5 (4Bβκ)] | 82% | 79% | – | –
21 | Cc1ccc2nc3c(c([Si](C)(C)C)c2c1)Cn1c-3cc(C(O)CCC2CCCCC2)c(C)c1=O (centres unmarked) [5 (5Cδ)] | 41% | 103% | – | –
22 | CCC(=O)c1cc2n(c(=O)c1C)Cc1c-2nc2ccc(OC)cc2c1[Si](C)(C)C [5 (5Dακ)] | 50% | 86% | – | –
